The subject of data set [1] is platelet aggregation induced by PAF. Put plainly: Inhibition of platelet aggregation induced by PAF. Type of data set: cell-based, New Zealand rabbits. Particulars: Oryctolagus cuniculus, rabbit platelets, aggregometer at 57° C. [sic]. The procedure:
1) Inhibition of platelet aggregation induced by PAF
This experimentation was conducted according to the method of R. KINLOUGH. RATHBONE, J. P. CAZENAVE, M. PACKHAM and F. MUSTARD, Lab. Invest. 48, 98, 1980. In this test, New Zealand rabbits were used (male New Zealand rabbits of an average weight of 5 kg).
The determinations are made on a chrono-log Coultronics aggregometer, at […] coupled with a graphic recorder; the results of these determinations (in molecular concentration) are reported on the table I on the central column.

The next data set in a line: Toxicity on mice. The note with it: mouse, in vivo, IP. From the text: None of these compounds of this invention was toxic per os at dose of 1 g/kg on mice.
None of the compounds was toxic IP at the dose of 1 g/kg on mice with the exception of the examples 1, 5 and 10 for which the LD 50 was comprised between 0.5 and 1 g/kg.

A short description of a further data set: Solubility. It is filed as physicochemical. The method, then:
Yield 38 g (85%) of an orange powder melting at 80° C. (Tottoli) insoluble in water at room temperature but soluble in DMSO.

Turning to `CCCCCCCCCCCCCCCCS(=O)(=O)N1CCc2c(sc3c2C(c2ccccc2Cl)=NCc2nnc(C)n2-3)C1` [Example 1, 6-(2-chlorophenyl)-9-hexadecylsulphonyl-7,8,9,10-tetrahydro-1-methyl 4H-pyrido [4',3':4,5] thieno [3,2-f] 1,2,4-triazolo [4,3-a] 1,4-diazepine], it took 0.0963 µM to reach half-maximal inhibition in data set [1] (IC50). Further, in the data set “Toxicity on mice”, the LD50 (as a rule, the dose at which mortality reaches 50%) is 500 to 1000 mg/kg. The “solubility in DMSO” value in the data set “Solubility” (DMSO) was “soluble”. The solubility in water entry in the data set “Solubility” (water, room temperature) was “insoluble”.

The values above are taken from patent US5049560A, “Sulfonyl derivatives of thieno-triazolo-diazepines useful as anti-PAF and anti-ischemic agents” (priority 1989, dated 1991).
